Patent publication US6358981B1, “Sulphonamide derivatives” (Eli Lilly and Company, priority 1998, dated 2002)

Legend:
human GluR4B receptor = target: T1, human GluR4B receptor (Homo sapiens, UniProt P48058); experiment: potentiation of agonist-induced excitability of human GluR4B receptor expressed in HEK 293 cells; type: cell-based
T1 construct: expressed in transfected cells
From the text: The ability of compounds of formula I to potentiate glutamate receptor-mediated response may be determined using fluorescent calcium indicator dyes (Molecular Probes, Eugene, Oreg., Fluo-3) and by measuring glutamate-evoked efflux of calcium into GluR4 transfected HEK293 cells, as described in more detail below.
In one test, 96 well plates containing confluent monolayers of HEK cells stably expressing human GluR4B (obtained as described in European Patent Application Publication Number EP-A1-583917) are prepared. The tissue culture medium in the wells is then discarded, and the wells are each washed once with 200 μl of buffer (glucose, 10 mM, sodium chloride, 138 mM, magnesium chloride, 1 mM, potassium chloride, 5 mM, calcium chloride, 5 mM, N-[2-hydroxyethyl]-piperazine-N-[2-ethanesulfonic acid], 10 mM, to pH 7.1 to 7.3). […]
Each test is then performed as follows. […] A second fluorescent reading is taken after 5 minutes incubation. 15 μl of 400 μM glutamate solution is then added to each well (final glutamate concentration 100 μM), and a third reading is taken. The activities of test compounds and cyclothiazide solutions are determined by subtracting the second from the third reading (fluorescence due to addition of glutamate in the presence or absence of test compound or cyclothiazide) and are expressed relative to enhance fluorescence produced by 100 μM cyclothiazide.

T1 sequence (P48058 21-902): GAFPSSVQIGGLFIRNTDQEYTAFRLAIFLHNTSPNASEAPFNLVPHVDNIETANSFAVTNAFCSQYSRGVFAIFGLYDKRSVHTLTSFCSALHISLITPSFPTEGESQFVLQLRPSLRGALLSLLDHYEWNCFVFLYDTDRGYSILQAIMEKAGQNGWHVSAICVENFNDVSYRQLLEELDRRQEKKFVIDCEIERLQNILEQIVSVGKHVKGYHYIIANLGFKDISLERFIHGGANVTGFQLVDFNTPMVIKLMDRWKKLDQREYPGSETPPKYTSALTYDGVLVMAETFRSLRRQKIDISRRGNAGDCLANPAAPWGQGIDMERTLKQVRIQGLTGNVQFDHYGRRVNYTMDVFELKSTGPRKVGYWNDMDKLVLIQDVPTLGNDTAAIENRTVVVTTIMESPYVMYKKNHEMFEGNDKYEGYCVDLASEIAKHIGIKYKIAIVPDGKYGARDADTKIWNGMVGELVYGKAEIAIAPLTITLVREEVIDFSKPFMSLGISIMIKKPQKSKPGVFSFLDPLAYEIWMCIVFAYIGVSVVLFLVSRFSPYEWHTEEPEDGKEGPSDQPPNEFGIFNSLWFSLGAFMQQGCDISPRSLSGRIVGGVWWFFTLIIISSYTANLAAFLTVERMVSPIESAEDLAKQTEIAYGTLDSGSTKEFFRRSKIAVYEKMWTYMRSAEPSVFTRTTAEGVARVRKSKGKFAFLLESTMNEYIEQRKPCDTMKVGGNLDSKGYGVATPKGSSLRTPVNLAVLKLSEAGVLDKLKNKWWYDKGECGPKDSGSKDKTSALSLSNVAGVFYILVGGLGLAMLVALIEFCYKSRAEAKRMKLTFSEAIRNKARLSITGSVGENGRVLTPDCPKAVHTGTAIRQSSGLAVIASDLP

| melting point [°C] | Compound | potentiation of agonist-induced excitability (human GluR4B receptor) |
| --- | --- | --- |
| 89 to 91 | CC(C)S(=O)(=O)NCC(F)c1ccc(-c2ccccc2)cc1 (centres unmarked) |  |
|  | NS(=O)(=O)c1cc2c(cc1Cl)NC(C1CC3C=CC1C3)NS2(=O)=O (centres unmarked) [cyclothiazide] | potentiate agonist-induced excitability |
